Test results taken from publication PMC117120 (BMC Biochemistry, 2002).
Where a chain is given by its changes, count along the chain named.

Columns and labels:
[1] = molecular target: T1, V149A mutant mouse 5-HT3ASR (Mus musculus, UniProt P23979, V150A); test: [^3H]granisetron saturation binding, V149A receptor
T1 sequence (P23979 24-483 isoform P23979-2 V150A): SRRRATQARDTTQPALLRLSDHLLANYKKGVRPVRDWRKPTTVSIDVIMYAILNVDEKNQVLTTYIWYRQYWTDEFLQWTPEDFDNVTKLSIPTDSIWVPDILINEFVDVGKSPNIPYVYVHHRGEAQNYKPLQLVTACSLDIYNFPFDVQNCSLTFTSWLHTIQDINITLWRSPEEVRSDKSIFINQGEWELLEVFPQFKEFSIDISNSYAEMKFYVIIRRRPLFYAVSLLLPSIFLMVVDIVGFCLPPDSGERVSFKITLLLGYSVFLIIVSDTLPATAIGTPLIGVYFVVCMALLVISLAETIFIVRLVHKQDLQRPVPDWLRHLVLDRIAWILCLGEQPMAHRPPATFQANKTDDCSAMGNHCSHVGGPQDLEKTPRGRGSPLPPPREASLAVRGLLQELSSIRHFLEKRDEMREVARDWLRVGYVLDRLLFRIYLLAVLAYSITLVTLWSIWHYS

[2] = molecular target: T2, V141A mutant mouse 5-HT3ASR (Mus musculus, UniProt P23979, V142A); test: [^3H]granisetron saturation binding, V141A receptor; settings: ± SE
T2 sequence (P23979 24-483 isoform P23979-2 V142A): T1 sequence (P23979 24-483 isoform P23979-2 V150A) with V119A, A127V

[3] = molecular target: T3, G147A mutant mouse 5-HT3ASR (Mus musculus, UniProt P23979, G148A); test: [^3H]granisetron saturation binding, G147A receptor
T3 sequence (P23979 24-483 isoform P23979-2 G148A): T1 sequence (P23979 24-483 isoform P23979-2 V150A) with G125A, A127V

[4] = molecular target: T4, Y140A mutant mouse 5-HT3ASR (Mus musculus, UniProt P23979, Y141A); test: [^3H]granisetron saturation binding, Y140A receptor; settings: ± SE
T4 sequence (P23979 24-483 isoform P23979-2 Y141A): T1 sequence (P23979 24-483 isoform P23979-2 V150A) with Y118A, A127V

[5] = system: Q150A – K153A mutant mouse 5-HT3ASRs; test: [^3H]granisetron saturation binding, Q150A – K153A receptors
[6] = molecular target: T5, N151A mutant mouse 5-HT3ASR (Mus musculus, UniProt P23979, N152A); test: [^3H]granisetron saturation binding, N151A receptor; settings: ± SE
T5 sequence (P23979 24-483 isoform P23979-2 N152A): T1 sequence (P23979 24-483 isoform P23979-2 V150A) with A127V, N129A

With `CN1C2CCCC1CC(NC(=O)c1nn(C)c3ccccc13)C2` (centres unmarked) [[^3H]granisetron] the “binding of [^3H]granisetron” value [1] was “No detectable binding”, the Bmax [2] was 0.32 ± .04 pmol/mg protein and the “Hill coefficient (n)” value [2] was 1.3 ± 0.22. For the same compound, the “binding of [^3H]granisetron” value [3] was “No detectable binding”, the Bmax [4] was 0.44 ± .08 pmol/mg protein and the “decrease in binding affinity (increased Kd), mutant vs wildtype” value [5] was 6 – 8 fold. For the same compound, the Bmax [6] was 4.9 ± 1.1 pmol/mg protein and the “Hill coefficient (n)” value [6] was 1.66 ± 0.16.
